Data as given in PubChem BioAssay AID624108 (Broad Institute, 2012).
Calls of active or inactive are those of the source. How the calls were made is not given here.

Target: Glycogen synthase kinase-3 beta (Homo sapiens) (UniProt P49841)
Test: binding affinity to recombinant GSK3beta – biophysical, surface plasmon resonance, microfluidics, dry powder samples, dose response (AID 624108)

Chain of Glycogen synthase kinase-3 beta (Homo sapiens) (P49841 whole entry, looked up): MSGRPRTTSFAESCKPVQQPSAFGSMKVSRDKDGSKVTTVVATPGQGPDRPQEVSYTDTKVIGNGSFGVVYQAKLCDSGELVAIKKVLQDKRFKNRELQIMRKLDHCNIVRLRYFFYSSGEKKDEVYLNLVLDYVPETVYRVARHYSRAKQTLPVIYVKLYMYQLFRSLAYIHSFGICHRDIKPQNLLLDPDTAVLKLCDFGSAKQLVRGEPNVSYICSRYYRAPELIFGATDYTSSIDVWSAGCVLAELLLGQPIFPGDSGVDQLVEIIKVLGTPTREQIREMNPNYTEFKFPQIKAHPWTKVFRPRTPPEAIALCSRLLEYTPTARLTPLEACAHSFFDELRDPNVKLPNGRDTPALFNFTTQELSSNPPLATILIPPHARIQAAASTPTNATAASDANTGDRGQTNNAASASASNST

| SMILES | Kd |
| --- | --- |
| CC1(C)CC(=O)/C(=C\c2ccccc2C(F)(F)F)C(=Nc2cc(C(F)(F)F)[nH]n2)C1 | > 5000 nM (inactive) |
| Cc1[nH]nc2c1C(C)(c1ccccc1)C1=C(CC(C)(C)CC1=O)N2 (configuration not stated) | 149 nM |
| COc1ccccc1C1C2=C(CC(C)(C)CC2=O)Nc2n[nH]c(C)c21 (configuration not stated) | 60 nM |
| CC1(C)CC(=O)C2=C(C1)Nc1n[nH]c(C(F)(F)F)c1C2c1cc(F)ccc1C(F)(F)F (configuration not stated) | 150 nM |
| Cc1[nH]nc2c1C(c1ccn[nH]1)C1=C(CC(C)(C)CC1=O)N2 (configuration not stated) | > 5000 nM (inactive) |
| Cc1[nH]nc2c1C(C)C1=C(CC(C)(C)CC1=O)N2 (configuration not stated) | > 5000 nM (inactive) |
| CC1(C)CC(=O)C2=C(C1)Nc1n[nH]c(C(F)(F)F)c1C2(C)c1ccccc1 (configuration not stated) | > 5000 nM (inactive) |
| COc1ccccc1C1C(C(C)=O)=C(C)Nc2n[nH]c(C)c21 (configuration not stated) | > 5000 nM (inactive) |
| CC1(C)CC(=O)C2=C(C1)Nc1n[nH]c(C(F)(F)F)c1C2c1cc(F)ccc1F (configuration not stated) | 424 nM |
| Cc1[nH]nc2c1C(c1ccccc1C#N)C1=C(CC(C)(C)CC1=O)N2 (configuration not stated) | > 5000 nM (inactive) |
| CC1(C)CC(=O)/C(=C\c2cccc(F)c2C(F)(F)F)C(=Nc2cc(C(F)(F)F)[nH]n2)C1 | 40 nM |
| Cc1[nH]nc2nc3c(c(-c4cccs4)c12)C(=O)CC(C)(C)C3 | 24 nM |
| CC1(C)CC(=O)C2=C(C1)Nc1n[nH]c(C(F)(F)F)c1C2c1cc(F)ccc1OC(F)(F)F (configuration not stated) | 627 nM |
| COc1ccccc1C1C2=C(CC(C)(C)CC2=O)Nc2ccccc21 (configuration not stated) | > 5000 nM (inactive) |
| CC1(C)CC(=O)C2=C(C1)Nc1n[nH]c(C(F)(F)F)c1C2c1ccc(F)cc1C(F)(F)F (configuration not stated) | 202 nM |
| Cc1[nH]nc2nc3c(c(-c4ccccc4)c12)C(=O)CC(C)(C)C3 | 13 nM |
| COc1ccccc1C1C2=C(CC(C)(C)CC2=O)Nc2onc(C)c21 (configuration not stated) | > 5000 nM (inactive) |
| CC1(C)CC(=O)C2=C(C1)Nc1n[nH]c(C(F)(F)F)c1C2c1c(F)cccc1F (configuration not stated) | > 5000 nM (inactive) |
| Cc1[nH]nc2c1C(c1ccc(Cl)s1)C1=C(CC(C)(C)CC1=O)N2 (configuration not stated) | 520 nM |

| SMILES | Kd |
| --- | --- |
| Cc1[nH]nc2c1C(C1CC1)C1=C(CC(C)(C)CC1=O)N2 (configuration not stated) | > 5000 nM (inactive) |
| COc1ccccc1C1C2=C(CCCC2=O)Nc2n[nH]c(C)c21 (configuration not stated) | > 5000 nM (inactive) |
| COc1ccccc1C1C2=C(CCC(C)(C)C2=O)Nc2n[nH]c(C)c21 (configuration not stated) | 305 nM |
| COc1ccccc1C1C2=C(CC(C)(C)CC2=O)Nc2n[nH]c(C(C)C)c21 (configuration not stated) | inactive |
| Cc1[nH]nc2c1C(c1cccs1)C1C(=O)CC(C)(C)CC1=N2 (configuration not stated) | 420 nM |
| Cc1[nH]nc2c1C(c1ccc3c(c1)OCO3)C1=C(CC(C)(C)CC1=O)N2 (configuration not stated) | inactive |
| COc1ccccc1-c1c2c(nc3n[nH]c(C)c13)CCC2=O | > 5000 nM (inactive) |
| CCc1[nH]nc2c1C(c1ccccc1OC)C1=C(CC(C)(C)CC1=O)N2 (configuration not stated) | > 5000 nM (inactive) |
| Cc1[nH]nc2c1C(C1CCCCC1)C1=C(CC(C)(C)CC1=O)N2 (configuration not stated) | > 5000 nM (inactive) |
| COc1ccccc1C1C2=C(CC(C)(C)CC2=O)Nc2[nH]ncc21 (configuration not stated) | 173 nM |
| Cc1[nH]nc2c1C(c1cccc3nonc13)C1=C(CC(C)(C)CC1=O)N2 (configuration not stated) | > 5000 nM (inactive) |
| CC1(C)CC(=O)C2=C(C1)Nc1n[nH]c(C(F)(F)F)c1C2c1ccccc1C(F)(F)F (configuration not stated) | 122 nM |
| COc1ccccc1/C=C1\C(=O)CC(C)(C)CC1=Nc1cc(C(F)(F)F)[nH]n1 | > 5000 nM (inactive) |
| COc1ccccc1C1C2=C(CC(C)(C)CC2=O)Nc2n[nH]c(C(C)(C)C)c21 (configuration not stated) | 585 nM |
| Cc1[nH]nc2nc3c(cc12)C(=O)CC(C)(C)C3 | > 5000 nM (inactive) |
| CC1(C)CC(=O)C2=C(C1)Nc1n[nH]c(C(F)(F)F)c1C2c1cccc(F)c1C(F)(F)F (configuration not stated) | 822 nM |
| COc1ccccc1C1C2=C(CC3(CCCCC3)CC2=O)Nc2n[nH]c(C)c21 (configuration not stated) | > 5000 nM (inactive) |
| Cc1[nH]nc2c1C(c1ccc(F)cc1Cl)C1=C(CC(C)(C)CC1=O)N2 (configuration not stated) | > 5000 nM (inactive) |
| COc1ccccc1C1C2=C(CC(C)(C)CC2=O)Nc2n[nH]c(-c3ccccc3)c21 (configuration not stated) | inactive |

The next lines start with the values.

| Kd | SMILES |
| --- | --- |
| 421 nM | Cc1[nH]nc2c1[C@H](c1cccs1)C1=C(CC(C)(C)CC1=O)N2 |
| 331 nM | Cc1[nH]nc2c1C(c1cccc(C#N)c1)C1=C(CC(C)(C)CC1=O)N2 (configuration not stated) |
| inactive | Cc1[nH]nc2c1C(c1ccc(F)cc1)C1=C(CC(C)(C)CC1=O)N2 (configuration not stated) |
| 102 nM | COc1ccccc1C1C2=C(CC(C)(C)CC2=O)Nc2n[nH]c(C(F)(F)F)c21 (configuration not stated) |
| 270 nM | Cc1[nH]nc2c1C(c1cccnc1)C1=C(CC(C)(C)CC1=O)N2 (configuration not stated) |
| > 5000 nM (inactive) | Cc1[nH]nc2c1C(c1ccc(Br)cn1)C1=C(CC(C)(C)CC1=O)N2 (configuration not stated) |
| 31 nM | COc1ccccc1[C@@H]1C2=C(CC(C)(C)CC2=O)Nc2n[nH]c(C(F)(F)F)c21 |
| 802 nM | Cc1cccc(C2C3=C(CC(C)(C)CC3=O)Nc3n[nH]c(C)c32)c1 (configuration not stated) |
| inactive | Cc1[nH]nc2c1C(c1cccc(F)c1)C1=C(CC(C)(C)CC1=O)N2 (configuration not stated) |
| 890 nM | Cc1[nH]nc2c1C(c1ccccc1Cl)C1=C(CC(C)(C)CC1=O)N2 (configuration not stated) |
| inactive | Cc1ccc(C2C3=C(CC(C)(C)CC3=O)Nc3n[nH]c(C)c32)cc1 (configuration not stated) |
| inactive | COc1ccc(C2C3=C(CC(C)(C)CC3=O)Nc3n[nH]c(C)c32)cc1 (configuration not stated) |
| > 5000 nM (inactive) | CC1(C)CC(=O)C2=C(C1)Nc1n[nH]c(C(F)(F)F)c1C2c1ccccc1F (configuration not stated) |
| 390 nM | Cc1[nH]nc2c1C(c1ccccn1)C1=C(CC(C)(C)CC1=O)N2 (configuration not stated) |
| 360 nM | Cc1[nH]nc2c1C(c1cccc(Cl)c1)C1=C(CC(C)(C)CC1=O)N2 (configuration not stated) |
| > 5000 nM (inactive) | Cc1[nH]nc2c1[C@@H](c1cccs1)C1=C(CC(C)(C)CC1=O)N2 |
| inactive | COc1ccccc1[C@H]1C2=C(CC(C)(C)CC2=O)Nc2n[nH]c(C(F)(F)F)c21 |
| inactive | Cc1[nH]nc2c1C(c1cccc(C(F)(F)F)c1)C1=C(CC(C)(C)CC1=O)N2 (configuration not stated) |
| > 5000 nM (inactive) | COc1cccc(C2C3=C(CC(C)(C)CC3=O)Nc3n[nH]c(C)c32)c1 (configuration not stated) |
| 113 nM | CC1(C)CC(=O)C2=C(C1)Nc1n[nH]c(C(F)(F)F)c1C2c1ccccc1 (configuration not stated) |
| 49 nM | Cc1[nH]nc2c1C(c1ccccc1C(F)(F)F)C1=C(CC(C)(C)CC1=O)N2 (configuration not stated) |
| > 5000 nM (inactive) | Cc1[nH]nc2c1[C@@H](c1ccccc1C(F)(F)F)C1=C(CC(C)(C)CC1=O)N2 |
| 368 nM | Cc1[nH]nc2c1C(c1ccc(C(F)(F)F)cc1)C1=C(CC(C)(C)CC1=O)N2 (configuration not stated) |
| inactive | Cc1[nH]nc2c1C(c1ccc(Cl)cc1)C1=C(CC(C)(C)CC1=O)N2 (configuration not stated) |
| 15 nM | Cc1[nH]nc2c1[C@H](c1ccccc1C(F)(F)F)C1=C(CC(C)(C)CC1=O)N2 |
| inactive | Cc1[nH]nc2c1C(c1ccc(C#N)cc1)C1=C(CC(C)(C)CC1=O)N2 (configuration not stated) |
| 223 nM | Cc1ccccc1C1C2=C(CC(C)(C)CC2=O)Nc2n[nH]c(C)c21 (configuration not stated) |
| 450 nM | Cc1[nH]nc2c1C(c1ccsc1)C1=C(CC(C)(C)CC1=O)N2 (configuration not stated) |
| 40 nM | Cc1[nH]nc2c1C(c1ccccc1Br)C1=C(CC(C)(C)CC1=O)N2 (configuration not stated) |
